In patent publication US11000033B2, “Ketone or oxime compound, and herbicide” (NISSAN CHEMICAL CORPORATION, priority 2014, dated 2021):

Columns and labels:
Type in all cases: in vivo
Leptochloa chinensis = assay: Test Example 3: herbicidal effect by foliage application, Wagner pot (symbol D); conditions: application herbicide amount 320 g/ha
Outline: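 Seeds sown in alluvial soil kept under 0.1–0.5 cm water, greenhouse 25–30 °C; 14 d growth. Leaves treated by small sprayer with water-diluted emulsion at a predetermined rate. Effect graded by set scale, 3 weeks.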

Scirpus juncoides [1] = assay: Test Example 1: herbicidal activity, application before weed generation in submerged conditions (symbol B); conditions: application herbicide amount 320 g/ha
Outline: (§1)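 Scores run 0 to 5 by herbicidal ratio, with 5 meaning 90% or more and 0 meaning 5% or lower, read 3 weeks after treatment. Compound was applied as a diluted emulsion to the water surface of submerged alluvial-soil pots on the day weed seeds were sown.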

rapeseed = assay: Test Example 5: effect on crop by foliage application, plastic box (symbol g); conditions: 320 g/ha, 3 weeks after application
Outline: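 A greenhouse held between 25° C. and 30° C. was used to grow plants sown spot-wise, beneath ~1.5 cm of soil, in boxes of sterilized diluvial soil.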

Chenopodium album = assay: Test Example 5: herbicidal effect by foliage application, plastic box (symbol O); conditions: 320 g/ha, 3 weeks after application
Outline: (§2)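 Sowing in sterilized diluvial soil, 14 days' greenhouse growth at 25° C. to 30° C., then uniform small-sprayer foliar application of aqueous emulsion dilution; plants scored three weeks afterwards.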

Monochoria vaginalis = assay: Test Example 1: herbicidal activity, application before weed generation in submerged conditions (symbol C); conditions: application herbicide amount 320 g/ha
Outline: as §1

[2] = tested on: Echinochloa crus-galli var. crus-galli; assay: Test Example 5: herbicidal effect by foliage application, plastic box (symbol H); conditions: 320 g/ha, 3 weeks after application
Outline: as §2

beet = assay: Test Example 4: effect on crop by soil treatment (symbol f); conditions: for f: beet, effect grade on crop: 320 g/ha; for Effect on crop grade, f: beet / f (beet) effect on crop grade: application herbicide amount 320 g/ha
Outline: (§3)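 Seeds were sown in spots on sterilized diluvial soil in a plastic box and covered with about 1.5 cm of soil. Plants were then grown in a greenhouse at 25° C. to 30° C.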

soybean = assay: Test Example 4: effect on crop by soil treatment (symbol d); conditions: for d: soybean, effect grade on crop: 320 g/ha; for Effect on crop grade, d: soybean / d (soybean) effect on crop grade: application herbicide amount 320 g/ha
Outline: as §3

transplanted rice plant = assay: Test Example 1: effect on crop, application before weed generation in submerged conditions (symbol a); conditions: application herbicide amount 320 g/ha
Outline: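 Alluvial soil pots flooded to 4 cm water, sown with Echinochloa oryzacola, Scirpus juncoides and Monochoria vaginalis, then transplanted with 2.5 leaf stage rice seedlings; pre-emergence application. Greenhouse 25° C. to 30° C.; scored 0–5 by herbicidal ratio 3 weeks after application.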

Scirpus juncoides [3] = assay: Test Example 2: herbicidal activity, application during weed generation in submerged conditions (symbol B); conditions: Table 23; application herbicide amount 320 g/ha; grade 0-5 by criteria of Test Example 1
Outline: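 Each pot contained alluvial soil under 4 cm of water with seeds of all three weeds sown together. Following growth at 25° C. to 30° C. to the one- to two-leaf stage, the floodwater received diluted emulsion at a predetermined amount; visual assessment followed at 3 weeks.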

| SMILES | herbicidal effect on D (Leptochloa chinensis), grade 0-5 (Leptochloa chinensis) | Herbicidal effect grade, B: Scirpus juncoides (Scirpus juncoides [1]) | Herbicidal effect grade, C: Monochoria vaginalis (Monochoria vaginalis) | Effect grade on crop, a: transplanted rice plant (transplanted rice plant) | Herbicidal effect grade, B: Scirpus juncoides (Scirpus juncoides [3]) | g: rapeseed, effect on crop (criteria of Test Example 1) (rapeseed) | O: Chenopodium album, herbicidal effect (criteria of Test Example 1) (Chenopodium album) | H: Echinochloa crus-galli var. crus-galli, herbicidal effect (criteria of Test Example 1) [2] | Effect on crop grade, f: beet (beet) | Effect on crop grade, d: soybean (soybean) | g: rapeseed, effect on crop grade (rapeseed) | H: Echinochloa crus-galli var. crus-galli, herbicidal effect grade [2] | f (beet) effect on crop grade (beet) | d (soybean) effect on crop grade (soybean) | other results |
| --- | --- | --- | --- | --- | --- | --- | --- | --- | --- | --- | --- | --- | --- | --- | --- |
| CON=C(C)CC1CC(OC(=O)COCc2ccccc2)=C(c2c(C)cc(C)cc2C)C1=O (stereo not shown) [1-094] | 5 (Herbicidal ratio of 90% or more (almost completely withered)) | 5 (Herbicidal ratio of 90% or more (almost completely withered)) | 1 (Herbicidal ratio of 5% or higher and lower than 20%) | 5 (Herbicidal ratio of 90% or more (almost completely withered)) | 5 (Herbicidal ratio of 90% or more (almost completely withered)) |  |  |  |  |  |  |  |  |  | g: rapeseed, effect on crop (criteria 0-5) (rapeseed): 4 (Herbicidal ratio of 70% or higher and lower than 90%); O: Chenopodium album, herbicidal effect (criteria 0-5) (Chenopodium album): 0 (Herbicidal ratio of 5% or lower (almost no effect)); H: Echinochloa crus-galli var. crus-galli, herbicidal effect (criteria 0-5) [2]: 5 (Herbicidal ratio of 90% or more (almost completely withered)); f: beet, effect grade on crop (beet): 0 (Herbicidal ratio of 5% or lower (almost no effect)); d: soybean, effect grade on crop (soybean): 1 (Herbicidal ratio of 5% or higher and lower than 20%) |
| CC(=O)CC1CC(O)=C(c2c(C)cc(Oc3ccccc3)cc2C)C1=O (stereo not shown) [7-014] | 5 (Herbicidal ratio of 90% or more (almost completely withered)) |  |  |  |  | 1 (Herbicidal ratio of 5% or higher and lower than 20%) | 0 (Herbicidal ratio of 5% or lower (almost no effect)) | 5 (Herbicidal ratio of 90% or more (almost completely withered)) | 0 (Herbicidal ratio of 5% or lower (almost no effect)) | 0 (Herbicidal ratio of 5% or lower (almost no effect)) |  |  |  |  |  |
| CC(=O)CC1CC(O)=C(c2c(C)cc(-c3ncccn3)cc2C)C1=O (stereo not shown) [7-017] | 5 (Herbicidal ratio of 90% or more (almost completely withered)) |  |  |  |  | 0 (Herbicidal ratio of 5% or lower (almost no effect)) | 0 (Herbicidal ratio of 5% or lower (almost no effect)) | 5 (Herbicidal ratio of 90% or more (almost completely withered)) | 0 (Herbicidal ratio of 5% or lower (almost no effect)) | 0 (Herbicidal ratio of 5% or lower (almost no effect)) |  |  |  |  |  |
| CON=C(C)CC1CC(OC(=O)COc2ccc(C)cc2)=C(c2c(C)cc(C)cc2C)C1=O (stereo not shown) [1-072] | 5 (Herbicidal ratio of 90% or more (almost completely withered)) | 4 (Herbicidal ratio of 70% or higher and lower than 90%) |  | 5 (Herbicidal ratio of 90% or more (almost completely withered)) | 3 (Herbicidal ratio of 40% or higher and lower than 70%) |  |  |  |  |  | 4 (Herbicidal ratio of 70% or higher and lower than 90%) | 5 (Herbicidal ratio of 90% or more (almost completely withered)) | 0 (Herbicidal ratio of 5% or lower (almost no effect)) | 0 (Herbicidal ratio of 5% or lower (almost no effect)) | O: Chenopodium album, herbicidal effect grade (Chenopodium album): 1 (Herbicidal ratio of 5% or higher and lower than 20%) |
| CON=C(C)CC1CC(OC(=O)C(C)(C)F)=C(c2c(C)cc(C)cc2C)C1=O (stereo not shown) [1-039] | 5 (Herbicidal ratio of 90% or more (almost completely withered)) | 5 (Herbicidal ratio of 90% or more (almost completely withered)) | 2 (Herbicidal ratio of 20% or higher and lower than 40%) | 5 (Herbicidal ratio of 90% or more (almost completely withered)) | 5 (Herbicidal ratio of 90% or more (almost completely withered)) |  |  |  |  |  | 4 (Herbicidal ratio of 70% or higher and lower than 90%) | 5 (Herbicidal ratio of 90% or more (almost completely withered)) | 3 (Herbicidal ratio of 40% or higher and lower than 70%) | 0 (Herbicidal ratio of 5% or lower (almost no effect)) |  |
| CC(CC1CC(O)=C(c2c(C)cc(Br)cc2C)C1=O)=NOCC(=O)N(C)C (mixture of isomers) [9-029] |  |  |  |  | 0 (Herbicidal ratio of 5% or lower (almost no effect)) |  |  |  | 0 (Herbicidal ratio of 5% or lower (almost no effect)) | 0 (Herbicidal ratio of 5% or lower (almost no effect)) | 4 (Herbicidal ratio of 70% or higher and lower than 90%) | 3 (Herbicidal ratio of 40% or higher and lower than 70%) |  |  | D (Leptochloa chinensis) herbicidal effect grade (Leptochloa chinensis; Table 24): 4 (Herbicidal ratio of 70% or higher and lower than 90%); O: Chenopodium album, herbicidal effect grade (Chenopodium album): 0 (Herbicidal ratio of 5% or lower (almost no effect)) |
| CON=C(C)CC1CC(OC(=O)CCC2CCCCC2)=C(c2c(C)cc(C)cc2C)C1=O (stereo not shown) [1-035] | 5 (Herbicidal ratio of 90% or more (almost completely withered)) | 5 (Herbicidal ratio of 90% or more (almost completely withered)) | 2 (Herbicidal ratio of 20% or higher and lower than 40%) |  | 4 (Herbicidal ratio of 70% or higher and lower than 90%) |  |  |  |  |  | 4 (Herbicidal ratio of 70% or higher and lower than 90%) | 5 (Herbicidal ratio of 90% or more (almost completely withered)) | 3 (Herbicidal ratio of 40% or higher and lower than 70%) | 0 (Herbicidal ratio of 5% or lower (almost no effect)) |  |
| CC(=O)CC1CC(O)=C(c2c(C)cc(-c3ccc(OC(F)(F)F)cc3)cc2C)C1=O (stereo not shown) [7-016] | 5 (Herbicidal ratio of 90% or more (almost completely withered)) |  |  |  |  | 0 (Herbicidal ratio of 5% or lower (almost no effect)) | 0 (Herbicidal ratio of 5% or lower (almost no effect)) | 1 (Herbicidal ratio of 5% or higher and lower than 20%) | 0 (Herbicidal ratio of 5% or lower (almost no effect)) | 0 (Herbicidal ratio of 5% or lower (almost no effect)) |  |  |  |  |  |
| CON=C(CC1CC(O)=C(c2c(C)cc(C)cc2C)C1=O)C1CCCC1 (stereo not shown) [1-078] | 4 (Herbicidal ratio of 70% or higher and lower than 90%) | 2 (Herbicidal ratio of 20% or higher and lower than 40%) | 0 (Herbicidal ratio of 5% or lower (almost no effect)) | 5 (Herbicidal ratio of 90% or more (almost completely withered)) | 0 (Herbicidal ratio of 5% or lower (almost no effect)) |  |  |  |  |  |  |  |  |  | g: rapeseed, effect on crop (criteria 0-5) (rapeseed): 3 (Herbicidal ratio of 40% or higher and lower than 70%); H: Echinochloa crus-galli var. crus-galli, herbicidal effect (criteria 0-5) [2]: 5 (Herbicidal ratio of 90% or more (almost completely withered)); f: beet, effect grade on crop (beet): 0 (Herbicidal ratio of 5% or lower (almost no effect)); d: soybean, effect grade on crop (soybean): 0 (Herbicidal ratio of 5% or lower (almost no effect)) |
| CCCCCCCCC(=O)OC1=C(c2c(C)cc(C)cc2C)C(=O)C(CC(C)=NOC)C1 (stereo not shown) [1-033] | 5 (Herbicidal ratio of 90% or more (almost completely withered)) | 4 (Herbicidal ratio of 70% or higher and lower than 90%) | 1 (Herbicidal ratio of 5% or higher and lower than 20%) | 5 (Herbicidal ratio of 90% or more (almost completely withered)) | 4 (Herbicidal ratio of 70% or higher and lower than 90%) |  |  |  |  |  | 4 (Herbicidal ratio of 70% or higher and lower than 90%) | 5 (Herbicidal ratio of 90% or more (almost completely withered)) | 1 (Herbicidal ratio of 5% or higher and lower than 20%) | 0 (Herbicidal ratio of 5% or lower (almost no effect)) |  |
